Like-named read-outs stand apart in the source and are kept apart here. One block for each molecule: values may come before it.
Tests used:
[1] = tested on: HIV-1 strain Bal: M-Tropic; assay: Human PBMC assay, p24 antigen ELISA, HIV1 clinical strain Bal; assay type: cell-based
Excerpt: (§1) Anti-HIV Evaluation Using Four HIV1 Clinical Strains.
(§2) Four HIV1 clinical strains, BAL and SF162 (M-tropic), […], and 89.6 (a dual tropic strain), were used in the current study. Here a standardized human peripheral blood mononuclear cell culture (PBMC) assay was used to determine the compound susceptibility of these HIV-1 strains. AZT, an anti-HIV drug in clinical use, was used as a positive control. Briefly, human PBMCs were collected from a donor and stimulated for seven days. The preparations (compound or fraction) were then added to the cultured cells at a wide range of concentrations, and the different HIV-1 strains were used to challenge the cultured cells using 96-well plates. After seven-days of incubation, the supernatants were collected and the HIV p24 levels of the infected cells were determined using a p24 antigen ELISA. The ICsos were calculated by comparing p24 antigen values for the compounds (fraction)-containing wells with those for no drug control wells. In these experiments, AZT was used as positive controls.

[2] = tested on: HIV-1 strain 89.6: Dual-Tropic; assay: Human PBMC assay, p24 antigen ELISA, HIV1 clinical strain 89.6; assay type: cell-based
Excerpt: as §1, §2

[3] = tested on: HIV-1 strain SF162: M-Tropic; assay: Human PBMC assay, p24 antigen ELISA, HIV1 clinical strain SF162; assay type: cell-based
Excerpt: as §1, §2

[4] = tested on: HIV-1 strain Lav.04: T-Tropic; assay: Human PBMC assay, p24 antigen ELISA, HIV1 clinical strain Lav.04; assay type: cell-based
Excerpt: as §1, §2

four HIV-1 strains = assay: Human PBMC assay, p24 antigen ELISA, summary over the four HIV-1 strains; assay type: cell-based; conditions: read-out: IC50, depending on the strains
Excerpt: Justiprocumins B (2) and patentiflorin A (3) were further evaluated against a broad spectrum of HIV strains including four HIV1 clinical strains, BAL and SF162 (M-tropic), […], and 89.6 (a dual tropic strain). In these experiments, AZT was used as a positive control. […] It is clear that justiprocumin B (2) and patentification A (3), like AZT, could inhibit the particle production of all four HIV-1 strains effectively in a dose-dependent manner.
as §1, §2

HIV replication = assay: Anti-HIV Post-Entry protocol (HIV/HA pseudovirions, luciferase reporter, A549 target cells); assay type: cell-based; conditions: for inhibition at 1 µg/mL: Human immunodeficiency virus 1, A549, read-out: inhibition of HIV replication
A549 cell line = assay: Evaluation of toxicity (CellTiter 96), A549; assay type: cell-based, human; conditions: at a concentration of 10 μg/mL
Description: (§3) Approximately 5000 cells seeded in a 96-well tissue culture plate in DMEM supplemented with FBS and penicillin/streptomycin. DMSO alone or compounds in 100% DMSO were added on the following day at appropriate concentrations and incubated with cells at 37° C. in 5% CO2 for 24 hr. After 24 hr, all media were removed and replaced with 100 μL fresh complete DMEM. After 48 hr post initial addition of DMSO or compound, 20 μL of CellTiter 96 Aqueous One Solution was added per well. After gentle mixing, plates were incubated at 37° C. in 5% CO2 for 4 hr. 25 μL of a 10% SDS solution was added per well and plates were stored at room temperature for approximately 12 hr. Absorbance was then measured at 450 nm using a plate reader.

Hela cell line = assay: Evaluation of toxicity (CellTiter 96), Hela; assay type: cell-based; conditions: at a concentration of 10 μg/mL
Description: as §3

[5] = tested on: HIV reverse transcription; assay: HIV gene expression of the R/U5 and U5/gag transcripts; assay type: cell-based
[6] = Human immunodeficiency virus 1, BAL, PBMC, 168 h, read-out: IC50 Bal: M-Tropic, human PBMC, p24 antigen, seven days
[7] = Human immunodeficiency virus 1, PBMC, 168 h, read-out: IC50 89.6: Dual-Tropic, human PBMC, p24 antigen, seven days
[8] = Human immunodeficiency virus 1, PBMC, 168 h, read-out: IC50 SF162: M-Tropic, human PBMC, p24 antigen, seven days
[9] = Human immunodeficiency virus 1, PBMC, 168 h, read-out: IC50 Lav.04: T-Tropic, human PBMC, p24 antigen, seven days
[10] = Human immunodeficiency virus 1, PBMC

IC50 ([1]; Human immunodeficiency virus 1, BAL, PBMC, 168 h, human PBMC, p24 antigen, seven days, read-out: IC50 Bal: M-Tropic): 77 nM
IC50 ([2]; Human immunodeficiency virus 1, PBMC, 168 h, human PBMC, p24 antigen, seven days, read-out: IC50 89.6: Dual-Tropic): 95 nM
IC50 ([3]; Human immunodeficiency virus 1, PBMC, 168 h, human PBMC, p24 antigen, seven days, read-out: IC50 SF162: M-Tropic): 85 nM
IC50 ([4]; Human immunodeficiency virus 1, PBMC, 168 h, human PBMC, p24 antigen, seven days, read-out: IC50 Lav.04: T-Tropic): 79 nM
IC50 (four HIV-1 strains; Human immunodeficiency virus 1, range over four HIV-1 strains, human PBMC): 77 to 95 nM
Structure (SMILES): Cc1cn([C@H]2C[C@H](N=[N+]=[N-])[C@@H](CO)O2)c(=O)[nH]c1=O [AZT, zidovudine, reference compound]

Structure (SMILES): COc1cc2c(O[C@@H]3O[C@H](C)[C@@H](O[C@@H]4O[C@H](CO)[C@@H](O)[C@H](O)[C@H]4O)[C@H](OC(C)=O)[C@H]3O)c3c(c(-c4ccc5c(c4)OCO5)c2cc1OC)C(=O)OC3 [Justiprocumin A (1), 9-(1,3-benzodioxol-5-yl)-4-[(3-O-acetyl-6-deoxy-4-O-β-D-glucopyranosyl-β-D-glucopyranosyl)oxy]-6,7-dimethoxy-naphtho[2,3-c]furan-1(3H)-one]
inhibition at 1 µg/mL (HIV replication): > 100%

Structure (SMILES): COc1cc2c(O[C@@H]3O[C@H](C)[C@@H](O[C@@H]4O[C@H](CO)[C@@H](O)[C@H](O)[C@H]4O)[C@H](O)[C@H]3OC(C)=O)c3c(c(-c4ccc5c(c4)OCO5)c2cc1OC)C(=O)OC3 [Justiprocumin B (2), 9-(1,3-benzodioxol-5-yl)-4-[(2-O-acetyl-6-deoxy-4-O-β-D-glucopyranosyl-β-D-glucopyranosyl)oxy]-6,7-dimethoxy-naphtho[2,3-c]furan-1(3H)-one]
inhibition at 1 µg/mL (HIV replication): > 100%
IC50 [1, 6]: 15 nM
IC50 [2, 7]: 15 nM
IC50 [3, 8]: 14 nM
IC50 [4, 9]: 21 nM
IC50 (four HIV-1 strains; [10]): 14 to 21 nM

Structure (SMILES): COc1cc2c(OC3OC(C)C(O)C(O)C3O)c3c(c(-c4ccc5c(c4)OCO5)c2cc1OC)C(=O)OC3 (stereo not shown) [Patentiflorin A (3), patentiflorin A]
IC50 (HIV replication; Human immunodeficiency virus 1, A549, read-out: anti-HIV activity IC50): < 0.01 µg/mL
IC50 [1, 6]: 30 nM
IC50 ([1]; read-out: IC50 Bal: M-Tropic, human PBMC, p24 antigen, seven days, listed as Synthetic patentiflorin A (3)): 32 nM
IC50 [2, 7]: 32 nM
IC50 ([2]; read-out: IC50 89.6: Dual-Tropic, human PBMC, p24 antigen, seven days, listed as Synthetic patentiflorin A (3)): 31 nM
IC50 [3, 8]: 37 nM
IC50 ([3]; read-out: IC50 SF162: M-Tropic, human PBMC, p24 antigen, seven days, listed as Synthetic patentiflorin A (3)): 30 nM
IC50 [4, 9]: 24 nM
IC50 ([4]; read-out: IC50 Lav.04: T-Tropic, human PBMC, p24 antigen, seven days, listed as Synthetic patentiflorin A (3)): 32 nM
IC50 (four HIV-1 strains; [10]): 24 to 37 nM
cytotoxicity against A549 (A549 cell line): no apparent cytotoxicity
cytotoxicity against Hela (Hela cell line): no apparent cytotoxicity
inhibition of HIV reverse transcription (R/U5 and U5/gag transcripts) [5]: effective inhibitor of HIV reverse transcription
